Earlier results on 1 substance are cited in patent US20050209315A1, “Bioavailable nutritional supplement and method of treatment of malabsorption” (priority 2004, published 2005).

For the data set the following is noted: relative to alpha tocopherol.

alpha-tocotrienol [Alpha tocotrienol]: the “more antioxidant activity than alpha tocopherol” value is listed as 40-60%.
